From patent publication US20030181441A1, “TACE INHIBITORS” (priority 1998, published 2003)

Columns and labels:
Format in all cases: biochemical
MMP-1 = target: T1, MMP-1 (Homo sapiens, UniProt P03956); experiment: Inhibition of Human Collagenase (MMP-1), fluorescence assay
T1 sequence (P03956 100-469): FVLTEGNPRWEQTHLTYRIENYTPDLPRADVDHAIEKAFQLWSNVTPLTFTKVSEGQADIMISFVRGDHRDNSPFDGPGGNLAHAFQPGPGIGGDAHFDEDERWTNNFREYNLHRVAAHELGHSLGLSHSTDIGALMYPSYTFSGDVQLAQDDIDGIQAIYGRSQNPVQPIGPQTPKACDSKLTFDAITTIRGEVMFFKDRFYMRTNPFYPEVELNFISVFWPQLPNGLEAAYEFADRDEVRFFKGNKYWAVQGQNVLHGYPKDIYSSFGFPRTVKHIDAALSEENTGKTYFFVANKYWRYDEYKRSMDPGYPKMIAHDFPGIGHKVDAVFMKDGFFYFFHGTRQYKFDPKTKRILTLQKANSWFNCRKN
Procedure: Inhibition of Human Collagenase (MMP-1)
Human recombinant collagenase is activated with trypsin using the following ratio: 10 μg trypsin per 100 μg of collagenase. The trypsin and collagenase are incubated at room temperature for 10 minutes then a five fold excess (50 μg/10 μg trypsin) of soybean trypsin inhibitor is added.
10 mM stock solutions of inhibitors are made up in dimethyl sulfoxide and then diluted using the following Scheme:
Twenty-five microliters of each concentration is then added in triplicate to appropriate wells of a 96 well microfluor plate. The final concentration of inhibitor will be a 1:4 dilution after addition of enzyme and substrate. Positive controls (enzyme, no inhibitor) are set up in wells D1-D6 and blanks (no enzyme, no inhibitors) are set in wells D7-D12.
Collagenase is diluted to 400 ng/ml and 25 μl is then added to appropriate wells of the microfluor plate. Final concentration of collagenase in the assay is 100 ng/ml.
Substrate (DNP-Pro-Cha-Gly-Cys(Me)-His-Ala-Lys(NMA)-NH2) is made as a 5 mM stock in dimethyl sulfoxide and then diluted to […] in assay buffer. The assay is initiated by the addition of 50 μl substrate per well of the microfluor plate to give a final concentration of […] Fluorescence readings (360 nm excitation, 460 nm emission) were taken at time 0 and then at 20 minute intervals. The assay is conducted at room temperature with a typical assay time of 3 hours.
Fluorescence vs time is then plotted for both the blank and collagenase containing samples (data from triplicate determinations is averaged). […] The zero time is used as a blank for each compound at each concentration and these values are subtracted from the 120 minute data. Data is plotted as inhibitor concentration vs % control (inhibitor fluorescence divided by fluorescence of collagenase alone×100). IC50's are determined from the concentration of inhibitor that gives a signal that is 50% of the control.
If IC50's are reported to be <0.03 μM then the inhibitors are assayed at concentrations of 0.3 μM, 0.03 μM, […].

TACE = TACE (Homo sapiens, UniProt P78536); experiment: Recombinant TNFα converting enzyme (TACE) activity, fluorescent quenched substrate; conditions: for MMP-1/TACE IC50 selectivity ratio: ratio of MMP-1 and TACE IC50 values
Text: Method for the Evaluation of Recombinant TNFα Converting Enzyme Activity.
Preparation of Recombinant TACE:
A DNA fragment coding for the signal sequence, prodomain and catalytic domain of TACE (amino acids […]), was amplified by polymerase chain reaction using a human lung cDNA library as a template. The amplified fragment was cloned into pFastBac vector. The DNA sequence of the insert was confirmed for both the strands. A bacmid prepared using pFastBac in E. coli DH10Bac was transfected into SF9 insect cells. The virus particles were amplified to P1, P2, P3 stages. The P3 virus was infected into both Sf9 and High Five insect cells and grown at 27° C. for 48 hours. The medium was collected and used for assays and further purification.
Preparation of Fluorescent Quenched Substrate:
A model peptidic TNF-α substrate (LY-LeucineAlanineGlutamineAlanineValine-ArginineSerine-SerineLysine(CMTR)-Arginine (LY=Lucifer Yellow; CMTR=5-carboxytetramethyl Rhodamine)) was prepared and the concentration estimated by absorbance at 560 nm (E560, 60,000 M-1CM-1) according to the method of Geoghegan, K F, “Improved method for converting an unmodified peptide to an energy-transfer substrate for a proteinase.” Bioconjugate Chem. 7, 385-391 (1995). This peptide encompasses the cleavage cite on pro-TNF which is cleaved in vivo by TACE.
The reaction, carried out in a 96 well plate (Dynatech), was comprised of 70 μl of buffer solution (25 mM Hepes-HCl, pH 7.5, plus 20 uM ZnCl2), 10 μl of 100 μM fluorescent quenched substrate, 10 μl of a DMSO (5%) solution of test compound, and an amount of r-TACE enzyme which will cause 50% cleavage in 60 minutes—in a total volume of 100 μl. The specificity of the enzyme cleavage at the amide bond between alanine and valine was verified by HPLC and mass spectrometry. Initial rates of cleavage were monitored by measuring the rate of increase in fluorescence at 530 nm (excitation at 409 nm) over 30 minutes. The experiment was controlled as follows: 1) for background fluorescence of substrate; 2) for fluorescence of fully cleaved substrate; 3) for fluorescence quenching or augmentation from solutions containing test compound.
The rates from the non-test compound containing “control” reactions were averaged to establish the 100% value. The rate of reaction in the presence of test compound was compared to that in the absence of compound, and tabulated as “percent of non-test compound containing control. The results were plotted as “% of control” vs. the log of compound concentration and a half-maximal point or IC50 value determined. The IC50 for the above assay is a measure of the inhibition of the TNF-α proteolytic activity of TACE. Blockage of binding of TNF-α to TACE as used herein is as described in U.S. Pat. No. 5,830,742, issued Nov. 3, 1998.

MMP-13 = MMP-13 (Homo sapiens, UniProt P45452); experiment: Inhibition of MMP-13, fluorescence assay
Procedure: Human recombinant MMP-13 is activated with 2 mM APMA (p-aminophenyl mercuric acetate) for 1.5 hours, at 37° C. and is diluted to […] in assay buffer (50 mM Tris, pH 7.5, 200 mM sodium chloride, 5 mM calcium chloride, 20 μM zinc chloride, 0.02% brij). Twenty-five microliters of diluted enzyme is added per well of a 96 well microfluor plate. The enzyme is then diluted in a 1:4 ratio in the assay by the addition of inhibitor and substrate to give a final concentration in the assay of […].
10 mM stock solutions of inhibitors are made up in dimethyl sulfoxide and then diluted in assay buffer as per the inhibitor dilution scheme for inhibition of human collagenase (MMP-1): Twenty-five microliters of each concentration is added in triplicate to the microfluor plate. The final concentrations in the assay are 30 μM, 3 μM, 0.3 μM, and 0.03 μM.
Substrate (Dnp-Pro-Cha-Gly-Cys(Me)-His-Ala-Lys(NMA)—NH2) is prepared as for inhibition of human collagenase (MMP-1) and […] is added to each well to give a final assay concentration of 10 μM. Fluorescence readings (360 nm excitation; 450 emission) are taken at time 0 and every 5 minutes for 1 hour.
Positive controls consist of enzyme and substrate with no inhibitor and blanks consist of substrate only.
IC50's are determined as per inhibition of human collagenase (MMP-1). If IC50's are reported to be less than 0.03 μM, inhibitors are then assayed at final concentrations of 0.3 μM, 0.03 μM, 0.003 μM and 0.0003 μM.

Sequence of TACE (P78536 223-474): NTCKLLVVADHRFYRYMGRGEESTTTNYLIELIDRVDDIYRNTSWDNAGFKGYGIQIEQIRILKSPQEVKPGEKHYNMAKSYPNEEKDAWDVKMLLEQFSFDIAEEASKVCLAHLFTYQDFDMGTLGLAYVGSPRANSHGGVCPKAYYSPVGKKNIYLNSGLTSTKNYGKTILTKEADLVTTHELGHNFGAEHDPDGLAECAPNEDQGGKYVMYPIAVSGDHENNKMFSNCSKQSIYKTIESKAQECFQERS

IC50 (MMP-1)	IC50 (TACE)	MMP-1/TACE IC50 selectivity ratio (TACE)	IC50 (MMP-13)	Compound
7480 nM	25 nM	299	8 nM	C[C@@H]1NCCN(S(=O)(=O)c2ccc(OCc3ccccc3)cc2)[C@H]1C(=O)NO
2000 nM	12 nM	167	6 nM	C[C@@H]1O[C@@H](C)CN(S(=O)(=O)c2ccc(OCc3ccncc3)cc2)[C@H]1C(=O)NO
1600 nM	6.2 nM	258	3 nM	CC(=O)N1CCN(S(=O)(=O)c2ccc(OCc3ccccc3C)cc2)[C@@H](C(=O)NO)[C@@H]1C
3500 nM	10 nM	350	88 nM	Cc1ccc(C)c(COc2ccc(S(=O)(=O)N3C[C@H](C)O[C@@H](C)[C@@H]3C(=O)NO)cc2)c1
10600 nM	19 nM	558	18 nM	Cc1ccccc1COc1ccc(S(=O)(=O)N2CCN[C@@H](C)[C@@H]2C(=O)NO)cc1
305 nM	7.2 nM	42.4	1.4 nM	CC1(C)[C@H](C(=O)NO)N(S(=O)(=O)c2ccc(OCc3ccc(F)cc3)cc2)CCS1(=O)=O
345 nM	7.4 nM	46.6	5 nM	CC1(C)[C@H](C(=O)NO)N(S(=O)(=O)c2ccc(OCc3ccc(F)cc3)cc2)CC[S+]1[O-] (some centres unmarked)
1400 nM	4.5 nM	311	1 nM	C[C@@H]1O[C@@H](CO)CN(S(=O)(=O)c2ccc(OCc3ccc(F)cc3)cc2)[C@H]1C(=O)NO
